Measurements published in US9492471B2, “Methods of treating a disease or disorder associated with Bruton'S Tyrosine Kinase” (Celgene Avilomics Research, Inc., priority 2013, dated 2016).
Like-named read-outs stand apart in the source and are kept apart here.

How the values were obtained:
Assay in all cases: HotSpot kinase profiling
Type in all cases: biochemical
[1] = target: T1, ALK5/TGFBR1 (Homo sapiens, UniProt P36897)
T1 construct: purchased Reaction Biology Corp
T1 sequence (P36897 34-503): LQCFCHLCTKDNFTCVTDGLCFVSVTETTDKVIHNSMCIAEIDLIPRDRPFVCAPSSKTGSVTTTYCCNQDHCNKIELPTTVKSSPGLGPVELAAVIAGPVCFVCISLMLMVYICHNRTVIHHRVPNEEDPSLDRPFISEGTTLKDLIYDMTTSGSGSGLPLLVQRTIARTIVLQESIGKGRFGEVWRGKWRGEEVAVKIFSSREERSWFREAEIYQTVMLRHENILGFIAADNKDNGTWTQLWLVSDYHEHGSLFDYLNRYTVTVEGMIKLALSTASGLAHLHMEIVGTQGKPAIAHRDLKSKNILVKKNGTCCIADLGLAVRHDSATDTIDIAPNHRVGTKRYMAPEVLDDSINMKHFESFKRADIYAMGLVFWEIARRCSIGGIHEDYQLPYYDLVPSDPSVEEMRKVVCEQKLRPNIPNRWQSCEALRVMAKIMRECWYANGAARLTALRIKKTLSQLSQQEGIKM
Summary of the method: (§1)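 Activity is measured by radiolabel transfer captured on P81 filters after a 2 h room-temperature reaction of kinase, substrate and cofactors. Values are percent inhibition against DMSO.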

[2] = target: T2, P38a/MAPK14 (Homo sapiens, UniProt Q16539)
T2 construct: purchased Reaction Biology Corp
Summary of the method: as §1

[3] = target: T3, STK16 (Homo sapiens, UniProt O75716)
T3 construct: purchased Reaction Biology Corp
T3 sequence (O75716 whole entry): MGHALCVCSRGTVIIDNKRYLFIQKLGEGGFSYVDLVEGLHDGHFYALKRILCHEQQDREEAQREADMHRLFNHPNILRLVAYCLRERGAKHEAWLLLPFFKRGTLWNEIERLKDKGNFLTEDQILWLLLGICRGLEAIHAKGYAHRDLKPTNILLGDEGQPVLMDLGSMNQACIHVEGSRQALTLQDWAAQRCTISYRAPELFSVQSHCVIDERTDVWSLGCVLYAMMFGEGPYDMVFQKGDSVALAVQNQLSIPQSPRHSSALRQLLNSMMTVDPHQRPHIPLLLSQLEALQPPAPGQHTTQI
Summary of the method: as §1

[4] = target: T4, Aurora C (Homo sapiens, UniProt Q9UQB9)
T4 construct: purchased Reaction Biology Corp
T4 sequence (Q9UQB9 1-309): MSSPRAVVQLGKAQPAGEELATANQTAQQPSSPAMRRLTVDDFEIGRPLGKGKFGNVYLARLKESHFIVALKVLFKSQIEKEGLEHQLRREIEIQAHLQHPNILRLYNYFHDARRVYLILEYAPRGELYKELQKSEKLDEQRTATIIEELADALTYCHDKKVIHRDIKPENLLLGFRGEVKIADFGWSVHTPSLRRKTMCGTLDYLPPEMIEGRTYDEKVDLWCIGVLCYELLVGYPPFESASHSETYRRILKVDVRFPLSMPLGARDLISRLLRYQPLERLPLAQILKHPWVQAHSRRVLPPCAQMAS
Summary of the method: as §1

[5] = target: T5, ALK6/BMPR1B (Homo sapiens, UniProt O00238)
T5 construct: purchased Reaction Biology Corp
T5 sequence (O00238 14-502): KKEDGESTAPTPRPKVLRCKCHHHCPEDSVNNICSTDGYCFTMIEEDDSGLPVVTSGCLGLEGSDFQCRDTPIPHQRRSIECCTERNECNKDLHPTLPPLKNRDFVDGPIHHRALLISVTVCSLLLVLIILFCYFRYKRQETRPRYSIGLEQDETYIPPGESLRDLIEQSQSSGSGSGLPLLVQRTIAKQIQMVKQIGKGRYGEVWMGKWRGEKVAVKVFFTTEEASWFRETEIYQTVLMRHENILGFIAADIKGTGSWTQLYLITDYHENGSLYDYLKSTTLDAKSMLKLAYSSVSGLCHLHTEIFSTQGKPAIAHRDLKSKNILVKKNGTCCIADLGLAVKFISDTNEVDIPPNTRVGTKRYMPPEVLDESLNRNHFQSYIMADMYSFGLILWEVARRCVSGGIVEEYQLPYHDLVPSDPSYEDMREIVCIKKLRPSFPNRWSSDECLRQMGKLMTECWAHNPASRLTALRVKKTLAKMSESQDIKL
Summary of the method: as §1

[6] = target: T6, PASK (Homo sapiens, UniProt Q96RG2)
T6 construct: purchased Reaction Biology Corp
Summary of the method: as §1

[7] = target: T7, MNK2 (Homo sapiens, UniProt Q9HBH9)
T7 construct: purchased Reaction Biology Corp
T7 sequence (Q9HBH9 whole entry): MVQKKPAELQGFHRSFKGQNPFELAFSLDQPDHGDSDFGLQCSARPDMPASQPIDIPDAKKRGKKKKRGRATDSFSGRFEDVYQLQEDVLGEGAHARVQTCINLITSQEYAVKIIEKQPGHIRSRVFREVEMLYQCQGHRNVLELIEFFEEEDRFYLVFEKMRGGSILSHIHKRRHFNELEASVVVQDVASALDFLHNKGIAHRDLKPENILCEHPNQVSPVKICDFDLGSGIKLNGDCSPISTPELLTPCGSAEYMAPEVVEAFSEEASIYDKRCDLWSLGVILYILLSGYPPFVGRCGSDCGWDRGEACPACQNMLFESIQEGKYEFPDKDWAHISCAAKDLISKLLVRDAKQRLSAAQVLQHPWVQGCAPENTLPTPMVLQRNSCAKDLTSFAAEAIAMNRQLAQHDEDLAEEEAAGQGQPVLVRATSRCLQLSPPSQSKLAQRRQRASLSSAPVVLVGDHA
Summary of the method: as §1

[8] = target: T8, MRCKb/CDC42BPB (Homo sapiens, UniProt Q9Y5S2)
T8 construct: purchased Reaction Biology Corp
T8 sequence (Q9Y5S2 whole entry): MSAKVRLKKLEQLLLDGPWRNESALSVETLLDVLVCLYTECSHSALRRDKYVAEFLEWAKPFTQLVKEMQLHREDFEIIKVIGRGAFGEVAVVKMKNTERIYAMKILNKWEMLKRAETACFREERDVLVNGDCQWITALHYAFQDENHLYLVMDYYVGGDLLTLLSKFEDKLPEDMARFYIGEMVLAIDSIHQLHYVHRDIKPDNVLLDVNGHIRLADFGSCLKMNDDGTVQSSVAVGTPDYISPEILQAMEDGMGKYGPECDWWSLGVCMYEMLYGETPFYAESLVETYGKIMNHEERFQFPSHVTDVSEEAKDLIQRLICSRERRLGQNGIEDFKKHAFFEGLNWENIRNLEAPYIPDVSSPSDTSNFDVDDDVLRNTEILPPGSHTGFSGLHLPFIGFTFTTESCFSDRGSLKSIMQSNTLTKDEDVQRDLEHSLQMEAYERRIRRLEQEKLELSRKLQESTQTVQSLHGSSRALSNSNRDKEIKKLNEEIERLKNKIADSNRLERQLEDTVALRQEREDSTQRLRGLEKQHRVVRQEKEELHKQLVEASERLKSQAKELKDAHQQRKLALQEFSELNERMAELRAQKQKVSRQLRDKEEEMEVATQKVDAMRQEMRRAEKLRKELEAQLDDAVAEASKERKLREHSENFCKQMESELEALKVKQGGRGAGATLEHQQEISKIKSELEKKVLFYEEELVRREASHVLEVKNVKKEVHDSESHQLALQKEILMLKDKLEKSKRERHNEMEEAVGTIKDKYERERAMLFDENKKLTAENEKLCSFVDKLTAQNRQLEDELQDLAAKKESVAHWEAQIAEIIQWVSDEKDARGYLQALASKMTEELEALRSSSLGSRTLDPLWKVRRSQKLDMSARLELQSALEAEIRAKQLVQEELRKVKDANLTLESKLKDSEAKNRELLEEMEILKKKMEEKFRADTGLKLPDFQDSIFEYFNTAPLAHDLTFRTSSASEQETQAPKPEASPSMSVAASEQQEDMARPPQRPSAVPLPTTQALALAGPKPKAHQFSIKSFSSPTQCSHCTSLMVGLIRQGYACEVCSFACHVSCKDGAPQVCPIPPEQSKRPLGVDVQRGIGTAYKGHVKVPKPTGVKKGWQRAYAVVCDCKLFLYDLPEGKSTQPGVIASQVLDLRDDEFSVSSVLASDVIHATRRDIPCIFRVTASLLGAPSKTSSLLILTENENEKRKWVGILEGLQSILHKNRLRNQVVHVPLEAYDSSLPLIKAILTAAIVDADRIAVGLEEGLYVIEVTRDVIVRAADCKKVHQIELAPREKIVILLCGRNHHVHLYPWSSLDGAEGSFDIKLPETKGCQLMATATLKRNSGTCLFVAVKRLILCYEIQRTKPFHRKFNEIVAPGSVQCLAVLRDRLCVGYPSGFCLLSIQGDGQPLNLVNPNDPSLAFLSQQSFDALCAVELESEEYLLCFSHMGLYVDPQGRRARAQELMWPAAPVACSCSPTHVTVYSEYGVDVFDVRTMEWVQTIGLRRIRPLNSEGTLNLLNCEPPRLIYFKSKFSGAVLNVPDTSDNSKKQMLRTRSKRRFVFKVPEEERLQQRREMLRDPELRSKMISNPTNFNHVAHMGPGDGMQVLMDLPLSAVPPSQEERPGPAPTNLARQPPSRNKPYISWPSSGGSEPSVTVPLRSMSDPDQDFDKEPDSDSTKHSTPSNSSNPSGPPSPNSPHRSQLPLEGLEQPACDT
Summary of the method: as §1

[9] = target: T9, PAK5 (Homo sapiens, UniProt Q9P286)
T9 construct: purchased Reaction Biology Corp
T9 sequence (Q9P286 whole entry): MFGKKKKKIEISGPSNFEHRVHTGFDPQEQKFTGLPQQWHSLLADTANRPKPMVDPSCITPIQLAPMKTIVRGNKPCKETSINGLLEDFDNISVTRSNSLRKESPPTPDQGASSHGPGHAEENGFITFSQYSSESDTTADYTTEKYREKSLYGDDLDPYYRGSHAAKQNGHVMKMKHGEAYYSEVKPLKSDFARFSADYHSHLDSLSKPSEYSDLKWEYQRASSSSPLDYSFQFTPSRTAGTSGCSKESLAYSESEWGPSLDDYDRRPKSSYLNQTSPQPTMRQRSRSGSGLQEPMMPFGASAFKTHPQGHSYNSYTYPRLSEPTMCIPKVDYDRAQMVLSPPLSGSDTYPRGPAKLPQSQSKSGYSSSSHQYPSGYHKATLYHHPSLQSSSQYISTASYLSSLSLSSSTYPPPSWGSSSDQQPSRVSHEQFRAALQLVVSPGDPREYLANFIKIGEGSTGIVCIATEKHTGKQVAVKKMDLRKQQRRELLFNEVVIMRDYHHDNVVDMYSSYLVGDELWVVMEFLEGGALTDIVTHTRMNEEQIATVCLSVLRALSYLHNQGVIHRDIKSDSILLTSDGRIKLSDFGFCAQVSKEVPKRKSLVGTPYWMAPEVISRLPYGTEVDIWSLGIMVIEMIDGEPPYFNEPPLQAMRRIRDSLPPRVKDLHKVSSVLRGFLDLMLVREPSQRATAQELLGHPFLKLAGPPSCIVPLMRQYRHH
Summary of the method: as §1

[10] = target: T10, GRK3 (Homo sapiens, UniProt P35626)
T10 construct: purchased Reaction Biology Corp
T10 sequence (P35626 1-688): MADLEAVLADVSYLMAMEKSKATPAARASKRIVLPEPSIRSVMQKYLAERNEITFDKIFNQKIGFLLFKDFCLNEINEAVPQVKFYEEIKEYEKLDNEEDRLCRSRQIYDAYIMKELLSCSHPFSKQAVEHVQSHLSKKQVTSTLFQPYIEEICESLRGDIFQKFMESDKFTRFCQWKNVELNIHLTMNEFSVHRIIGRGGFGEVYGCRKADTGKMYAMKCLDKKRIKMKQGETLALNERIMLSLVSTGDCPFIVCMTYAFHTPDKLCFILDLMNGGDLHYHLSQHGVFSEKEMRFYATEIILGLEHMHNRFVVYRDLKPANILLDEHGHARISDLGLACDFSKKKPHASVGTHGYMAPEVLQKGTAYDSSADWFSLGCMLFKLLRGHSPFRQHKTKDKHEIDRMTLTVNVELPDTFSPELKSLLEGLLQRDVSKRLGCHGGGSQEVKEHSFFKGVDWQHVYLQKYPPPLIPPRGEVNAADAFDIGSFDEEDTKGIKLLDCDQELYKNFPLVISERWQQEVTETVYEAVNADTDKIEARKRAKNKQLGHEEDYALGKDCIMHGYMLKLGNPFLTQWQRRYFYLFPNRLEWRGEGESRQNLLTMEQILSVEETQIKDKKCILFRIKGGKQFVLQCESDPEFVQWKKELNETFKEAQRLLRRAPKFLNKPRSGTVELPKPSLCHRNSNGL
Summary of the method: as §1

[11] = target: T11, TIE2/TEK (Homo sapiens, UniProt Q02763)
T11 construct: purchased Reaction Biology Corp
T11 sequence (Q02763 23-1124): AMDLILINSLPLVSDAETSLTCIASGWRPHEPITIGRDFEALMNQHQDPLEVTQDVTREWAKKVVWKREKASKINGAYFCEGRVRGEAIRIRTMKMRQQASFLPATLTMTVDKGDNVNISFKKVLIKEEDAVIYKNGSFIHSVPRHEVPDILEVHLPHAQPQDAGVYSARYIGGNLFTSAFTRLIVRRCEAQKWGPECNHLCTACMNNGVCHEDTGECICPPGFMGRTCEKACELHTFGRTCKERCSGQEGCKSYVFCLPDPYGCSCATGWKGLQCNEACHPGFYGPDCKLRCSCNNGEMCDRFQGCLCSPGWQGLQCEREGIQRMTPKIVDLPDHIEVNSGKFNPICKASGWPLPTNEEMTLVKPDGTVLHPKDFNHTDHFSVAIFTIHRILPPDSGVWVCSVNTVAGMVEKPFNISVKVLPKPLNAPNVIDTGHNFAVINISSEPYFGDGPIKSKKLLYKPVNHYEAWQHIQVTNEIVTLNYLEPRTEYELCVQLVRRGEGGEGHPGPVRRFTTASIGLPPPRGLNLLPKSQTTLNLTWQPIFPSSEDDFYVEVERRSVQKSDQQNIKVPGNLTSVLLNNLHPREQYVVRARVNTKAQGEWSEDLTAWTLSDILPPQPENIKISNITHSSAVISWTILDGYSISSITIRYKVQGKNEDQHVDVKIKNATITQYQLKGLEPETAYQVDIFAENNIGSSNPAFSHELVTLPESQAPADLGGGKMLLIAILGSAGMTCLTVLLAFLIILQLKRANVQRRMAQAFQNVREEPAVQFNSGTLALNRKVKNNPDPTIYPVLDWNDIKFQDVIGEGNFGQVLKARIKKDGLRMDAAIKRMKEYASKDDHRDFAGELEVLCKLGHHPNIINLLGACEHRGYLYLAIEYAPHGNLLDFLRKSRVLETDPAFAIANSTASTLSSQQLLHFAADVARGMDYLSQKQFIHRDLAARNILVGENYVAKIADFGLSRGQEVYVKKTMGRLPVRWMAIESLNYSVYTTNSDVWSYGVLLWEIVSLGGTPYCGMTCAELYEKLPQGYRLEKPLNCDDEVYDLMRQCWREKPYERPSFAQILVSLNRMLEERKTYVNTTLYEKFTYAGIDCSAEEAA
Summary of the method: as §1

[12] = read-out: % Enzyme Activity (relative to DMSO controls) Run 1
[13] = read-out: % Enzyme Activity (relative to DMSO controls) Run 2

Compound `C=CC(=O)Nc1cccc(Nc2nc(Nc3ccc(OCCOC)c(F)c3)ncc2F)c1` [Compound 2] has an inhibition at 3 µM [1] of -8.03%, a remaining activity at 3 µM [1, 12] of 106% and a remaining activity at 3 µM [1, 13] of 110%. It also gave an inhibition at 3 µM [2] of -6.68%, a remaining activity at 3 µM [2, 12] of 106% and a remaining activity at 3 µM [2, 13] of 108%. The inhibition at 3 µM [3] was 78%, the remaining activity at 3 µM [3, 12] was 22.9% and the remaining activity at 3 µM [3, 13] was 21%. It also gave an inhibition at 3 µM [4] of 72%, a remaining activity at 3 µM [4, 12] of 26.2% and a remaining activity at 3 µM [4, 13] of 29.8%. The inhibition at 3 µM [5] was -80.4%, the remaining activity at 3 µM [5, 12] was 177% and the remaining activity at 3 µM [5, 13] was 184%. For the same compound, the inhibition at 3 µM [6] was 6.14%, the remaining activity at 3 µM [6, 12] was 94.7% and the remaining activity at 3 µM [6, 13] was 93.1%. The inhibition at 3 µM [7] was 16.9%, the remaining activity at 3 µM [7, 12] was 83% and the remaining activity at 3 µM [7, 13] was 83.2%. It also gave an inhibition at 3 µM [8] of -6.12%, a remaining activity at 3 µM [8, 12] of 107% and a remaining activity at 3 µM [8, 13] of 105%. The inhibition at 3 µM [9] was -27.4%, the remaining activity at 3 µM [9, 12] was 123% and the remaining activity at 3 µM [9, 13] was 132%. For the same compound, the inhibition at 3 µM [10] was -0.2%, the remaining activity at 3 µM [10, 12] was 99.5% and the remaining activity at 3 µM [10, 13] was 101%. For the same compound, the inhibition at 3 µM [11] was -5.21%, the remaining activity at 3 µM [11, 12] was 103% and the remaining activity at 3 µM [11, 13] was 108%.
